The text below walks through data of patent US6818200B2, “Method of using deuterated calcium channel blockers” (priority 1994, dated 2004).

For one assay, the system named is S. pyogenes. The assay is described as follows: Effect of solvent (water or D2O) on ceftazidime activity. It counts as cell-based. The conditions noted are these: dissolved in D2O (FIG. 33). Here is the method:
The effect of solvent on ceftazidime activity was tested to confirm that dissolving ceftazidime in D2O could alter its efficacy. We therefore dissolved control and modified ceftazidime in water of D2O and tested it effect on S. pyogenes (FIG. 33). […] Thus, our findings underscore the unique importance of isotopes.

Assay [1] has as its system Streptococcus faecalis. As to the kind of experiment: Antibiotic disc diffusion (NCCLS). The class given is cell-based. The conditions noted are these: disc diffusion (FIGS. 21, 22 penicillin V; FIG. 27 methicillin). How it is done: (§1) Antibiotic testing was carried out using disc diffusion and tube dilution methods following NCCLS (National Committee for Clinical Laboratory Standards) methodology with several strains of bacteria.
(§2) Antibiotic testing was carried using disc diffusion and tube dilution methods following NCCLS (National Committee for Clinical Laboratory Standards) methodology.

The test system of assay [2] is Staphylococcus aureus. The assay is described as follows: Antibiotic disc diffusion (NCCLS). The class given is cell-based. The conditions noted are these: disc diffusion (FIG. 19, 29 ceftazidime; FIGS. 21, 22 penicillin V; FIG. 27 methicillin). How it is done: as §1, §2
In assay [3] the test system is Streptococcus pyogenes. As to the kind of experiment: Antibiotic disc diffusion (NCCLS). It counts as cell-based. The conditions noted are these: disc diffusion (FIGS. 21, 22 penicillin V; FIG. 27 methicillin). Here is the method:
as §1, §2
For orientation: In agar diffusion tests the substance spreads into inoculated agar from a disc or well.

Assay [4] relates to S. aureus clinical isolates. As to the kind of experiment: Penicillin V on clinical isolates. The class given is cell-based. The conditions noted are these: methicillin sensitive isolates (FIGS. 34 and 35). Here is the method: The effect of control and deuterated penicillin V on S. aureus clinical isolates was determined (FIGS. 34 and 35). […] The modest differences may be related to the concentrations used and density of bacterial seeding on the plates.

Assay [5] concerns Staphylococcus aureus. The assay is described as follows: Antibiotic tube dilution (NCCLS). It counts as cell-based. The conditions noted are these: tube dilution (FIG. 20 penicillin V, FIG. 26 methicillin). Here is the method:
as §1, §2

In assay [6] the test system is Streptococcus pyogenes. As to the kind of experiment: Antibiotic tube dilution (NCCLS). It counts as cell-based. The conditions noted are these: tube dilution (FIG. 20 penicillin V, FIG. 26 methicillin). How it is done:
as §1, §2

The next assay deals with S. aureus. The assay is described as follows: Penicillin V dose-response study. The class given is cell-based. Here is the method: A dose-response study for penicillin V using S. aureus was conducted (FIG. 30). […] These conditions used a higher inoculum (100 fold) than previous studies.
A experiment similar to that above was performed except that the dose range was larger.

The subject of assay [7] is Staphylococcus aureus (ATCC 25923) or Streptococcus faecalis (ATCC 29212). As to the kind of experiment: Penicillin V zonal inhibition on Mueller-Hinton agar plates. It counts as cell-based. The following applies: disks with 0.1 ml of 1 mg/ml solution, 24 hours at 37° C. (FIG. 23). Here is the method:
Penicillin V. or deuterated penicillin V disks were prepared by allowing 0.1 ml of a 1 mg/ml solution of the respective drugs to absorb into filter paper disks. After drying the disks were placed onto Mueller-Hinton agar plates seeded with either Staphylococcus aureus (ATCC 25923) or Streptococcus faecalis (ATCC 29212). The resulting plates were incubated for 24 hours at 37° C. and zones of inhibition around the disks were measured. Results are graphically depicted in FIG. 23.

The test system of assay [8] is normotensive Sprague-Dawley rats. As to the kind of experiment: Nicardipines on blood pressure in normotensive Sprague-Dawley rats (Example VI). The following applies: for slope function of dose response: calculated by Litchfield-Wilcoxon method; for change in mean arterial pressure at equipotent doses: control 1×10^−9 moles, deuterated 3×10^−9 moles, p=NS; for ED16, reduction in mean arterial pressure / ED50, reduction in mean arterial pressure / ED84, reduction in mean arterial pressure: injected, anesthetized rats. The class given is in vivo, rat. The source says: Effect of deuterated control […] on blood pressure in normotensive Sprague-Dawley rats.

For assay [9] the test system is unchanged. As to the kind of experiment: Nifedipines on blood pressure in normotensive Sprague-Dawley rats (Example V). It counts as in vivo, rat. The conditions noted are these: for maximum change in mean arterial pressure at equipotent doses: 1 ml injected, control 2×10^−3 molar, p=NS; for maximum change in mean arterial pressure at equipotent doses / duration of action (hypotensive response): deuterated 1×10^−3 molar; for duration of action (hypotensive response): equipotent doses: control 2×10^−3 molar, p=0.02. From the text: Effect of deuterated and control nifedipines on blood pressure in normotensive Sprague-Dawley rats.

The test system of assay [10] is T type calcium channels in NE 115 cells. The assay is described as follows: Use dependency of calcium channel inhibition, whole cell patch-clamp with repetitive pulses (Example IV). In general terms: In patch-clamp work, channel activity is measured electrically.
Method: In the following set of examples, calcium channels were depolarized with repetitive pulses of current at the intervals indicated. Such studies were carried out using the whole cell version of the patch-clamp. The reduction of inward current as a function of the interval between pulses in the absence of any drug was taken as the control.
In assay [11] the test system is Spontaneously hypertensive rats (SHR). The assay is described as follows: Blood pressure effect of i.v. nifedipines in anesthetized spontaneously hypertensive rats (Example II). The following applies: at the three lower concentrations, p=0.08 Wilcoxon rank-sum (FIG. 1). The class given is in vivo, rat.
Method: Spontaneously hypertensive rats (SHR) were anesthetized with pentobarbital (65 mg/kg, intraperitoneally) and a carotid artery and jugular vein cannulated. Blood pressure was continuously monitored via the carotid artery cannula. […] Aliquots of appropriate dilutions were then injected intravenously in the SHR and blood pressure effects monitored for at least two hours following injection. Doses used were 0.00001, 0.00002, 0.000025, and 0.00005 moles per rat in the control group and in the test group. All rats were within 25 grams of body weight of each other.
For assay [12], the system named is Streptococcus faecalis. As to the kind of experiment: Antibiotic tube dilution (NCCLS). The conditions noted are these: tube dilution (FIG. 26 methicillin). The class given is cell-based. Here is the method: as §1, §2

On to `CC(C)(O/N=C(\C(=O)N[C@@H]1C(=O)N2C(C(=O)[O-])=C(C[n+]3ccccc3)CS[C@H]12)c1csc(N)n1)C(=O)O` [control ceftazidime, ceftazidime], for which, in the assay with S. pyogenes, the “activity when dissolved in D2O” value is given as “enhance activity”.

On to `CC1(C)S[C@@H]2[C@H](NC(=O)COc3ccccc3)C(=O)N2[C@H]1C(=O)O` [deuterated penicillin V], for which the “zones of inhibition, modified vs control drug” value in the assay on Streptococcus faecalis [1], in the assay on Staphylococcus aureus [2] and in the assay with Streptococcus pyogenes [3] was “greater for modified (test) compared to control drug” throughout. Moreover, the “potency, modified vs control drug” value in [4] was “always more potent than the controls”. Further, the “concentration necessary to inhibit growth, modified vs control drug” value in the assay on Staphylococcus aureus [5] and in the assay on Streptococcus pyogenes [6] was “substantially less compared to control drug” each time. Further, the bacteriocidal activity entry with S. aureus (high dose, higher inoculum (100 fold) (FIG. 30)) was “began to show effect”; with S. aureus (higher doses, larger dose range (FIG. 31), listed as modified penicillin V), “effective at higher doses”. Besides, the “potency relative to native penicillin V in zonal inhibition” value in assay [7] was “increase in potency”.

With `COC(=O)C1=C(C)NC(C)=C(C(=O)OCCN(C)Cc2ccccc2)C1c1cccc([N+](=O)[O-])c1` (stereo not drawn) [control nicardipine, nicardipine, reference compound], in assay [8], the “slope function of dose response” value is 416; the “change in mean arterial pressure at equipotent doses” value is −13.8 mmHg; the “ED16, reduction in mean arterial pressure” value came out at 6.11e-06 mmol; the “ED50, reduction in mean arterial pressure” value worked out at 0.00254 mmol. Also, the “ED84, reduction in mean arterial pressure” value in assay [8] stood at 1.06 mmol.

For the compound `COC(=O)C1=C(C)NC(C)=C(C(=O)OC)C1c1ccccc1[N+](=O)[O-]` [nifedipine, reference compound], in [9], the “maximum change in mean arterial pressure at equipotent doses” value was −45.8 mmHg and the “duration of action (hypotensive response)” value was determined as 46.5 min.

With `[2H]C([2H])([2H])C1=C(C(=O)OC)C(c2ccccc2[N+](=O)[O-])C(C(=O)OC)=C(C([2H])([2H])[2H])N1` [deuterated nifedipine], in [9], the “maximum change in mean arterial pressure at equipotent doses” value is −40.3 mmHg and the “duration of action (hypotensive response)” value stood at 62.2 min. In addition, the “potency on mean arterial pressure compared with control” value in assay [9] (all doses, six rats per dose, p<0.05 (FIG. 6)) is on record as “more potent than control nifedipine”. The “duration of effect compared with control” value in assay [9] (at each time period) is reported as “greater for deuterated nifedipine compared to control nifedipine”. The “calcium current inhibition as a function of pulse frequency” value in [10] (1 and 0.3 second intervals, 5 micromolar (FIG. 4)) was “more effective than control nifedipine in blocking the calcium channels”. The “decrease of inward current at increased stimulation frequency” value in assay [10] (5 micromolar, FIG. 2 panel C) is given as “more effective than control nifedipine”. In addition, in assay [10] (all frequencies, 5 micromolar (FIG. 5)), the “use dependent calcium channel inhibition” value is recorded as “greater use dependent calcium channel inhibition”. Also, the “inhibitory effect on inward calcium current” value in [10] (repetitive 1 second pulses, 5 micromolar, p<0.05 (FIG. 3)) is reported as “more effective at blocking calcium current than control current”. Also, in assay [11], the “hypotensive effect compared with regular nifedipine” value is recorded as “greater than that of regular nifedipine”.

For `[2H]C([2H])([2H])C1=C(C(=O)OC)C(c2cccc([N+](=O)[O-])c2)C(C(=O)OCCN(C)Cc2ccccc2)=C(C([2H])([2H])[2H])N1` (stereo not drawn) [deuterated nicardipine], in [8] (at most time periods (FIG. 10)), the “duration of effect compared with control” value is reported as “greater for deuterated nicardipine compared to control nicardipine”. Moreover, in assay [8], the “slope function of dose response” value is given as 46; the “change in mean arterial pressure at equipotent doses” value is on record as −13.8 mmHg; the “ED16, reduction in mean arterial pressure” value came out at 4.62e-05 mmol; the “ED50, reduction in mean arterial pressure” value amounted to 0.00211 mmol. Also, the “ED84, reduction in mean arterial pressure” value in assay [8] is 0.09 mmol.

As to `[2H]c1c([2H])c(OC)c(C(=O)N([2H])C2C(=O)N3C2SC(C)(C)C3C(=O)[O-])c(OC)c1[2H].[Na+]` (stereo not drawn) [modified methicillin], the “zones of inhibition, modified vs control drug” value in the assay with Streptococcus faecalis [1], in the assay with Staphylococcus aureus [2] and in the assay on Streptococcus pyogenes [3] was “less for modified compared to control drug” throughout. Also, the “concentration necessary to inhibit growth, modified vs control drug” value with Streptococcus faecalis [12], with Staphylococcus aureus [5] and in the assay on Streptococcus pyogenes [6] was “less for control compared to modified drug” in each case.

For the compound `CC1(C)S[C@@H]2[C@H](NC(=O)COc3ccccc3)C(=O)N2[C@H]1C(=O)O` [control penicillin V, penicillin V, reference compound], the bacteriocidal activity result in the assay on S. aureus (higher doses, larger dose range (FIG. 31)) is listed as “ineffective”.
